Experimental data taken from BigSolDB 2.1.

COc1ccc2cccc(CCNC(C)=O)c2c1
solubility (mole fraction) (in ethanol, 278.15 K): 0.0109 | solubility (mole fraction) (in ethanol, 283.15 K): 0.0169 | solubility (mole fraction) (in ethanol, 288.15 K): 0.0235 | solubility (mole fraction) (in ethanol, 293.15 K): 0.0319 | solubility (mole fraction) (in ethanol, 298.15 K): 0.0425 | solubility (mole fraction) (in ethanol, 303.15 K): 0.0542 | solubility (mole fraction) (in ethanol, 308.15 K): 0.0819 | solubility (mole fraction) (in ethanol, 313.15 K): 0.109 | solubility (mole fraction) (in ethanol, 318.15 K): 0.144 | solubility (mole fraction) (in ethyl acetate, 278.15 K): 0.00662 | solubility (mole fraction) (in ethyl acetate, 283.15 K): 0.00934 | solubility (mole fraction) (in ethyl acetate, 288.15 K): 0.0131 | solubility (mole fraction) (in ethyl acetate, 293.15 K): 0.0175 | solubility (mole fraction) (in ethyl acetate, 298.15 K): 0.0263 | solubility (mole fraction) (in ethyl acetate, 303.15 K): 0.0342 | solubility (mole fraction) (in ethyl acetate, 308.15 K): 0.0454 | solubility (mole fraction) (in ethyl acetate, 313.15 K): 0.0598 | solubility (mole fraction) (in ethyl acetate, 318.15 K): 0.0754 | solubility (mole fraction) (in isopropanol, 278.15 K): 0.00499 | solubility (mole fraction) (in isopropanol, 283.15 K): 0.0107 | solubility (mole fraction) (in isopropanol, 288.15 K): 0.0186 | solubility (mole fraction) (in isopropanol, 293.15 K): 0.0256 | solubility (mole fraction) (in isopropanol, 298.15 K): 0.032 | solubility (mole fraction) (in isopropanol, 303.15 K): 0.039 | solubility (mole fraction) (in isopropanol, 308.15 K): 0.053 | solubility (mole fraction) (in isopropanol, 313.15 K): 0.0686 | solubility (mole fraction) (in isopropanol, 318.15 K): 0.0893 | solubility (mole fraction) (in methanol, 278.15 K): 0.0192 | solubility (mole fraction) (in methanol, 283.15 K): 0.0264 | solubility (mole fraction) (in methanol, 288.15 K): 0.0347 | solubility (mole fraction) (in methanol, 293.15 K): 0.0442 | solubility (mole fraction) (in methanol, 298.15 K): 0.0584 | solubility (mole fraction) (in methanol, 303.15 K): 0.0752 | solubility (mole fraction) (in methanol, 308.15 K): 0.101 | solubility (mole fraction) (in methanol, 313.15 K): 0.147 | solubility (mole fraction) (in methanol, 318.15 K): 0.18 | solubility (mole fraction) (in n-butanol, 278.15 K): 0.00986 | solubility (mole fraction) (in n-butanol, 283.15 K): 0.0147 | solubility (mole fraction) (in n-butanol, 288.15 K): 0.0214 | solubility (mole fraction) (in n-butanol, 293.15 K): 0.0279 | solubility (mole fraction) (in n-butanol, 298.15 K): 0.04 | solubility (mole fraction) (in n-butanol, 303.15 K): 0.05 | solubility (mole fraction) (in n-butanol, 308.15 K): 0.06 | solubility (mole fraction) (in n-butanol, 313.15 K): 0.0802 | solubility (mole fraction) (in n-butanol, 318.15 K): 0.107 | solubility (mole fraction) (in n-butyl acetate, 278.15 K): 0.00323 | solubility (mole fraction) (in n-butyl acetate, 283.15 K): 0.00474 | solubility (mole fraction) (in n-butyl acetate, 288.15 K): 0.00661 | solubility (mole fraction) (in n-butyl acetate, 293.15 K): 0.00944 | solubility (mole fraction) (in n-butyl acetate, 298.15 K): 0.0134 | solubility (mole fraction) (in n-butyl acetate, 303.15 K): 0.0207 | solubility (mole fraction) (in n-butyl acetate, 308.15 K): 0.0261 | solubility (mole fraction) (in n-butyl acetate, 313.15 K): 0.038 | solubility (mole fraction) (in n-butyl acetate, 318.15 K): 0.0507 | solubility (mole fraction) (in n-pentyl acetate, 278.15 K): 0.00181 | solubility (mole fraction) (in n-pentyl acetate, 283.15 K): 0.00281 | solubility (mole fraction) (in n-pentyl acetate, 288.15 K): 0.00432 | solubility (mole fraction) (in n-pentyl acetate, 293.15 K): 0.00601 | solubility (mole fraction) (in n-pentyl acetate, 298.15 K): 0.00884 | solubility (mole fraction) (in n-pentyl acetate, 303.15 K): 0.0156 | solubility (mole fraction) (in n-pentyl acetate, 308.15 K): 0.021 | solubility (mole fraction) (in n-pentyl acetate, 313.15 K): 0.0294 | solubility (mole fraction) (in n-pentyl acetate, 318.15 K): 0.0397 | solubility (mole fraction) (in n-propanol, 278.15 K): 0.00905 | solubility (mole fraction) (in n-propanol, 283.15 K): 0.016 | solubility (mole fraction) (in n-propanol, 288.15 K): 0.0201 | solubility (mole fraction) (in n-propanol, 293.15 K): 0.0261 | solubility (mole fraction) (in n-propanol, 298.15 K): 0.0402 | solubility (mole fraction) (in n-propanol, 303.15 K): 0.0484 | solubility (mole fraction) (in n-propanol, 308.15 K): 0.0694 | solubility (mole fraction) (in n-propanol, 313.15 K): 0.0892 | solubility (mole fraction) (in n-propanol, 318.15 K): 0.115 | solubility (mole fraction) (in n-propyl acetate, 278.15 K): 0.00406 | solubility (mole fraction) (in n-propyl acetate, 283.15 K): 0.00625 | solubility (mole fraction) (in n-propyl acetate, 288.15 K): 0.00886 | solubility (mole fraction) (in n-propyl acetate, 293.15 K): 0.0127 | solubility (mole fraction) (in n-propyl acetate, 298.15 K): 0.018 | solubility (mole fraction) (in n-propyl acetate, 303.15 K): 0.0255 | solubility (mole fraction) (in n-propyl acetate, 308.15 K): 0.0364 | solubility (mole fraction) (in n-propyl acetate, 313.15 K): 0.0466 | solubility (mole fraction) (in n-propyl acetate, 318.15 K): 0.0639 | solubility (mole fraction) (in water, 278.15 K): 1.8e-05 | solubility (mole fraction) (in water, 283.15 K): 2.9e-05 | solubility (mole fraction) (in water, 288.15 K): 4.59e-05 | solubility (mole fraction) (in water, 293.15 K): 6.85e-05 | solubility (mole fraction) (in water, 298.15 K): 0.000119 | solubility (mole fraction) (in water, 303.15 K): 0.000161 | solubility (mole fraction) (in water, 308.15 K): 0.000248 | solubility (mole fraction) (in water, 313.15 K): 0.00038 | solubility (mole fraction) (in water, 318.15 K): 0.000551
